Experimental data: patent publication US12448358B2, “Inhibitors of protein arginine deiminase 1 and methods of preparation and use thereof” (University of Massachusetts, priority 2019, dated 2025)
pIC50: −log10 of the molar value.

Biological target: T1, PAD1 (Homo sapiens, UniProt Q9ULC6)
T1 construct: made in house
T1 sequence (Q9ULC6 1-663): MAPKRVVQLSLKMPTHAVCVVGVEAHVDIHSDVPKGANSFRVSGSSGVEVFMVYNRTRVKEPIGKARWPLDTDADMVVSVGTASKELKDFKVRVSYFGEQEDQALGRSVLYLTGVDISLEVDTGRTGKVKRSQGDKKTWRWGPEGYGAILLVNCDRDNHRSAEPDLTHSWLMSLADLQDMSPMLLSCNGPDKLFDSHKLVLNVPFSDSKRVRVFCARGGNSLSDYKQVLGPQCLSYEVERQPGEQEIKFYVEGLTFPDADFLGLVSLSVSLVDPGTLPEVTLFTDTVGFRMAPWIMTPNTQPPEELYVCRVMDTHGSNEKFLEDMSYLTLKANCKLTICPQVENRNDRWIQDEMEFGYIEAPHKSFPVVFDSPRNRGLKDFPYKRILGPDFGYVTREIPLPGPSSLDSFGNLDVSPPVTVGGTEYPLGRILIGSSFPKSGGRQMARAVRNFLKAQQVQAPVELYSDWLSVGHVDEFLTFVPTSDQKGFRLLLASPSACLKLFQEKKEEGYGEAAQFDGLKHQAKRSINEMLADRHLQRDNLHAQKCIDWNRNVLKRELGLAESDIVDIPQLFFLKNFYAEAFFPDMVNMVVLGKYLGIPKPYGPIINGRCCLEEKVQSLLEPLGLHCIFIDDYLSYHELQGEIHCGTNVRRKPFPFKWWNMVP
Assay: Inhibition of RFA labelling of PAD1 (ABPP assay)
Assay type: binding
Conditions: PAD1 2 μM, RFA 2 μM, 37° C., 2 h
Description: The halogen-dependent change in potency of the PAD1 inhibitors was further confirmed using an activity-based protein profiling (ABPP) assay that uses the PAD-targeted probe, rhodamine-conjugated F-amidine (RFA, FIG. 2C).
RFA enables the covalent modification and fluorescent labelling of PADs with the help of its fluoroacetamidine and rhodamine moieties, respectively. However, in the presence of a PAD inhibitor that can compete for binding to the active site, RFA labelling is inhibited. […] Similar results were obtained with the chloroacetamidine-containing compounds 2, 12, 14 and 8 (FIG. 9).
RFA labelling. RFA labelling of PAD1 in the presence of inhibitors followed a protocol similar to that established for PAD2. (Mondal, et al. ACS Chem. Biol. 2018, 13, 1057-1065.) Briefly, PAD1 (2 μM final) was added to prewarmed (10 min at 37° C.) reaction mixture (100 mM TRIS pH 7.4, 50 mM NaCl, 10 mM CaCl2, and 2 mM DTT in a final volume of 30 μL) containing RFA (2 μM final) and DMSO or various concentrations of the inhibitor. […] In-gel fluorescence of the protein bands was recorded using a typhoon scanner (excitation/emission maxima of ˜546/579, respectively) and was quantified using ImageJ software. IC50 values of the inhibitors were obtained by plotting the relative decrease in the fluorescence intensity of protein bands against the concentration of inhibitor. […]

With N=C(CF)NCCC[C@H](NC(=O)c1cc(I)cc(I)c1O)c1nc2ccccc2[nH]1 [Compound 1] the pIC50 was 4.74.
